What all share (test): SILAC proteomics / in-gel fluorescence, competition of probe 13-t labeling by 3a
In test [1] the target is proteins of HEK293T cells transiently overexpressing caspase-6 (Homo sapiens, UniProt P55884). The note with it: Comp; protein EIF3B P55884.
Test [2] has as its target proteins of HEK293T cells transiently overexpressing caspase-6 (Homo sapiens, UniProt P31689).
The target of test [3] is proteins of HEK293T cells transiently overexpressing caspase-6 (Homo sapiens, UniProt P35606). To be noted: Comp; protein COPB2 P35606.
Test [4] concerns the target proteins of HEK293T cells transiently overexpressing caspase-6 (Homo sapiens, UniProt Q04637). The note with it: Comp; protein EIF4G1 Q04637.
Test [5] has as its target proteins of HEK293T cells transiently overexpressing caspase-6 (Homo sapiens, UniProt P61247). The note with it: Comp; protein RPS3A P61247.
In test [6] the target is proteins of HEK293T cells transiently overexpressing caspase-6 (Homo sapiens, UniProt P62280). To be noted: Comp; protein RPS11 P62280.
For test [7], the target named is proteins of HEK293T cells transiently overexpressing caspase-6 (Homo sapiens, UniProt P54886). The note with it: Comp; protein ALDH18A1 P54886.
proteins of HEK293T cells transiently overexpressing caspase-6 (Homo sapiens, UniProt P54886), sequence (P54886 whole entry): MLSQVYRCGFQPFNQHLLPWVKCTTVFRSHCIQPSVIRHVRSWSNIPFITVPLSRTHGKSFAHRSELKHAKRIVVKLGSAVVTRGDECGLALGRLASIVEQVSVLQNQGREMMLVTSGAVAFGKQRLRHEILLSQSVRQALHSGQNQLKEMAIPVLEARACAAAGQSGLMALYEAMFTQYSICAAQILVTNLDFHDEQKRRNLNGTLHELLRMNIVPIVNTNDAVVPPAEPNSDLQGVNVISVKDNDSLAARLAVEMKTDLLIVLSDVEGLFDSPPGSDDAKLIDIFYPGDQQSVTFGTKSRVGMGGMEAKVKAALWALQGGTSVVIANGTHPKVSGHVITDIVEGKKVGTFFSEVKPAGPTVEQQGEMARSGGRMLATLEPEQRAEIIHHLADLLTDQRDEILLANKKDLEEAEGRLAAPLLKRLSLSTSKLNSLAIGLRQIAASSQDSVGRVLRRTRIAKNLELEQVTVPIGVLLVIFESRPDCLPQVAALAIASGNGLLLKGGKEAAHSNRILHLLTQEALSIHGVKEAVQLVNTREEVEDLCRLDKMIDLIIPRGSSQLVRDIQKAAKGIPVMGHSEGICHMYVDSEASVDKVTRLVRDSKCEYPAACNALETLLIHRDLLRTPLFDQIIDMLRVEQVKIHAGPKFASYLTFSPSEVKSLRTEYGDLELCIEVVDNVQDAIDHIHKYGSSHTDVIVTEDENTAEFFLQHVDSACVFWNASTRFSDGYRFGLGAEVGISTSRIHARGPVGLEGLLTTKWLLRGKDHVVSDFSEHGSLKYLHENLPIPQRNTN
Test [8] has as its target proteins of HEK293T cells transiently overexpressing caspase-6 (Homo sapiens, UniProt P17987). The note with it: Comp; protein TCP1 P17987.
Test [9] concerns the target proteins of HEK293T cells transiently overexpressing caspase-6 (Homo sapiens, UniProt P38919). To be noted: Comp; protein EIF4A3 P38919.
Test [10] deals with proteins of HEK293T cells transiently overexpressing caspase-6 (Homo sapiens, UniProt P31943). To be noted: Comp; protein HNRNPH1 P31943.
proteins of HEK293T cells transiently overexpressing caspase-6 (Homo sapiens, UniProt P31943), sequence (P31943 whole entry): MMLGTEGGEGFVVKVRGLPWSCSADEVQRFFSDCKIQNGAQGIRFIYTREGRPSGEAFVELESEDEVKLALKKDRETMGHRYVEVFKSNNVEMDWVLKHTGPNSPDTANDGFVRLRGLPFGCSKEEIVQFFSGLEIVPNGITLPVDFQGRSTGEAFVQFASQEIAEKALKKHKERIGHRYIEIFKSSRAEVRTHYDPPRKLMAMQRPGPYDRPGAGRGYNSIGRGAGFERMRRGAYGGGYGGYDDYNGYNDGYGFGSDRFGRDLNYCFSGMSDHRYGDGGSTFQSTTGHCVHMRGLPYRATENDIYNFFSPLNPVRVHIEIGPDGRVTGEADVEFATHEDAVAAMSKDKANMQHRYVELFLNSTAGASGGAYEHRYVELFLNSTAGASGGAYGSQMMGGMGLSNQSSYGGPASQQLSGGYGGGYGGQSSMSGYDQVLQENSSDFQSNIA
Test [11] deals with proteins of HEK293T cells transiently overexpressing caspase-6 (Homo sapiens, UniProt P36405).
proteins of HEK293T cells transiently overexpressing caspase-6 (Homo sapiens, UniProt P36405), sequence (P36405 whole entry): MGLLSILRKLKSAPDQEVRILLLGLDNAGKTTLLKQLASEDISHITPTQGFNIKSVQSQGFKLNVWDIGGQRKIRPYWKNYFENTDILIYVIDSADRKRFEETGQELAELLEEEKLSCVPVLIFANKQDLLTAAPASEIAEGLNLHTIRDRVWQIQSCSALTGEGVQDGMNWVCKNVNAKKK
For test [12], the target named is proteins of HEK293T cells transiently overexpressing caspase-6 (Homo sapiens, UniProt P46779). The note with it: Comp; protein RPL28 P46779.
The target in test [13] is T1, proteins of HEK293T cells transiently overexpressing caspase-6 (Homo sapiens, UniProt Q9BQG0).
T1 sequence (Q9BQG0 1-1328): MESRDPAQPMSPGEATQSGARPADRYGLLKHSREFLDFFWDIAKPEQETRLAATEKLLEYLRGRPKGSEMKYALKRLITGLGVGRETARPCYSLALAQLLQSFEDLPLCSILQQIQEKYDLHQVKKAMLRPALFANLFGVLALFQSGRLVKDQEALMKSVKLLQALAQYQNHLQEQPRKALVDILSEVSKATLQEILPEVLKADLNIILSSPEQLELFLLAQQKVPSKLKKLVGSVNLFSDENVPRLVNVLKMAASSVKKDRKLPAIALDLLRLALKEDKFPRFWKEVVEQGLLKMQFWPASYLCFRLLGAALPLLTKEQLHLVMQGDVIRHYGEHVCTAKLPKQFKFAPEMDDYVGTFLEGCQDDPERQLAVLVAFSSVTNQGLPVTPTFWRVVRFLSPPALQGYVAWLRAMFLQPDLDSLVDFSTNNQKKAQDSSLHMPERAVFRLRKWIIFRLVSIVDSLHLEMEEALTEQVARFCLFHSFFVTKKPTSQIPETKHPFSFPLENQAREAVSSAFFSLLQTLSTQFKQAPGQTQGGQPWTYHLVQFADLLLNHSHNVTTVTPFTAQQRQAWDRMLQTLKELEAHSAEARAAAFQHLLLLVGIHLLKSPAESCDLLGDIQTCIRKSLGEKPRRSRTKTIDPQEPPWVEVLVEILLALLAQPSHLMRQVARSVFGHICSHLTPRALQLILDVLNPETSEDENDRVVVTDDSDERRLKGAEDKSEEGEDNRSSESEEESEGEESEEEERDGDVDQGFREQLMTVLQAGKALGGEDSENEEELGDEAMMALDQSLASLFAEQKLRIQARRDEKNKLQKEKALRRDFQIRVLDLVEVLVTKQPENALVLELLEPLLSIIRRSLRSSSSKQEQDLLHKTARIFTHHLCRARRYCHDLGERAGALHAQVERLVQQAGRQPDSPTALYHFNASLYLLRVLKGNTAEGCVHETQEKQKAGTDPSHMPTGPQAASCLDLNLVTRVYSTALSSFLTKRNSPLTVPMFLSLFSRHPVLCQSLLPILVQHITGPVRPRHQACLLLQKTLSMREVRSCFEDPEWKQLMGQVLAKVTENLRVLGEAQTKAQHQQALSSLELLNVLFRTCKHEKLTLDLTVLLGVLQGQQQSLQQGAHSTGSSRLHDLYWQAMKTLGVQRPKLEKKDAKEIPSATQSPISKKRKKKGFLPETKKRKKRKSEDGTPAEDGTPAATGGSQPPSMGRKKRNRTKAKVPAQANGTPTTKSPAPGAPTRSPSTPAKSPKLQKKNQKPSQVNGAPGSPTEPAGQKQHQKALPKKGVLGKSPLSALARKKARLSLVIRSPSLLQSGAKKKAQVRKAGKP
The note with it: Comp; protein MYBBP1A Q9BQG0.

[14] abbreviates: protein DNAJA1 (P31689), Exp Comp, analysis C6, p 0.0625, 5 peptides.
Setting [15] is: protein ARL3 (P36405), Exp Comp, analysis C6, p 0.1250, 5 peptides.

SMILES strings stand for the structures.

proteins of HEK293T cells transiently overexpressing caspase-6 (Homo sapiens, UniProt P31689), sequence (P31689 whole entry): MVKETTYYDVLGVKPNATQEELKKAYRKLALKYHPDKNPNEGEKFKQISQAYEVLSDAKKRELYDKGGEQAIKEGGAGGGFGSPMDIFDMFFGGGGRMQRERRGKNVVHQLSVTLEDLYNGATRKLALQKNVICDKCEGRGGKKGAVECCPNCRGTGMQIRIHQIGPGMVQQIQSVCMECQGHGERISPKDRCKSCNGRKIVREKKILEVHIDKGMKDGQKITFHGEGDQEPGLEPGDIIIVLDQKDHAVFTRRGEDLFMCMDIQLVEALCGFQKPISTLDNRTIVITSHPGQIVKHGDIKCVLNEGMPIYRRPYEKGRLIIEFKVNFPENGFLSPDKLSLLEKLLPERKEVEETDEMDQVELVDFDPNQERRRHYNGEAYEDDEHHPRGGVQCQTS
proteins of HEK293T cells transiently overexpressing caspase-6 (Homo sapiens, UniProt P17987), sequence (P17987 whole entry): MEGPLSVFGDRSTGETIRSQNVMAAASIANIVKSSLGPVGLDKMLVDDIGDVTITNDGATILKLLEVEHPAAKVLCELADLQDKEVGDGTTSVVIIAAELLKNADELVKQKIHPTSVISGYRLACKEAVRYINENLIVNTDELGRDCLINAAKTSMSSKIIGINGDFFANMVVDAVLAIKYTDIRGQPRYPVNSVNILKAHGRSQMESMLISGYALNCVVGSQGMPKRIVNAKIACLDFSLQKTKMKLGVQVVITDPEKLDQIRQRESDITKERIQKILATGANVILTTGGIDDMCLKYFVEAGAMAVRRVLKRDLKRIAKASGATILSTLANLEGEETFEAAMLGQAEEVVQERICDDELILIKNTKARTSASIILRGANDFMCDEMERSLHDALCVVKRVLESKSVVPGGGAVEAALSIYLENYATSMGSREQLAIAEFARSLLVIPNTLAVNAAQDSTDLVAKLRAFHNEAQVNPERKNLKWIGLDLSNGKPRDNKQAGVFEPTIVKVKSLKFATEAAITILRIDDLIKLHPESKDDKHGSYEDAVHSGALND
proteins of HEK293T cells transiently overexpressing caspase-6 (Homo sapiens, UniProt P38919), sequence (P38919 whole entry): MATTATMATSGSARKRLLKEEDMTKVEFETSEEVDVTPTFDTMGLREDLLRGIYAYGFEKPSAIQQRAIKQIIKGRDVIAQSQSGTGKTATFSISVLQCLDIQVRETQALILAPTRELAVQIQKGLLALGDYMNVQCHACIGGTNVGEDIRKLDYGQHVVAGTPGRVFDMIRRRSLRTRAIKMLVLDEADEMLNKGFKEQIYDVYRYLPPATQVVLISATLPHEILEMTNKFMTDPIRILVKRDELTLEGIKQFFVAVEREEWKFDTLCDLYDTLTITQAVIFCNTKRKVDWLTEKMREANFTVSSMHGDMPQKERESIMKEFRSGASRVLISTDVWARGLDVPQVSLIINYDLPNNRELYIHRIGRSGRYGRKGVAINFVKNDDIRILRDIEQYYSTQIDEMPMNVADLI
proteins of HEK293T cells transiently overexpressing caspase-6 (Homo sapiens, UniProt Q04637), sequence (Q04637 whole entry): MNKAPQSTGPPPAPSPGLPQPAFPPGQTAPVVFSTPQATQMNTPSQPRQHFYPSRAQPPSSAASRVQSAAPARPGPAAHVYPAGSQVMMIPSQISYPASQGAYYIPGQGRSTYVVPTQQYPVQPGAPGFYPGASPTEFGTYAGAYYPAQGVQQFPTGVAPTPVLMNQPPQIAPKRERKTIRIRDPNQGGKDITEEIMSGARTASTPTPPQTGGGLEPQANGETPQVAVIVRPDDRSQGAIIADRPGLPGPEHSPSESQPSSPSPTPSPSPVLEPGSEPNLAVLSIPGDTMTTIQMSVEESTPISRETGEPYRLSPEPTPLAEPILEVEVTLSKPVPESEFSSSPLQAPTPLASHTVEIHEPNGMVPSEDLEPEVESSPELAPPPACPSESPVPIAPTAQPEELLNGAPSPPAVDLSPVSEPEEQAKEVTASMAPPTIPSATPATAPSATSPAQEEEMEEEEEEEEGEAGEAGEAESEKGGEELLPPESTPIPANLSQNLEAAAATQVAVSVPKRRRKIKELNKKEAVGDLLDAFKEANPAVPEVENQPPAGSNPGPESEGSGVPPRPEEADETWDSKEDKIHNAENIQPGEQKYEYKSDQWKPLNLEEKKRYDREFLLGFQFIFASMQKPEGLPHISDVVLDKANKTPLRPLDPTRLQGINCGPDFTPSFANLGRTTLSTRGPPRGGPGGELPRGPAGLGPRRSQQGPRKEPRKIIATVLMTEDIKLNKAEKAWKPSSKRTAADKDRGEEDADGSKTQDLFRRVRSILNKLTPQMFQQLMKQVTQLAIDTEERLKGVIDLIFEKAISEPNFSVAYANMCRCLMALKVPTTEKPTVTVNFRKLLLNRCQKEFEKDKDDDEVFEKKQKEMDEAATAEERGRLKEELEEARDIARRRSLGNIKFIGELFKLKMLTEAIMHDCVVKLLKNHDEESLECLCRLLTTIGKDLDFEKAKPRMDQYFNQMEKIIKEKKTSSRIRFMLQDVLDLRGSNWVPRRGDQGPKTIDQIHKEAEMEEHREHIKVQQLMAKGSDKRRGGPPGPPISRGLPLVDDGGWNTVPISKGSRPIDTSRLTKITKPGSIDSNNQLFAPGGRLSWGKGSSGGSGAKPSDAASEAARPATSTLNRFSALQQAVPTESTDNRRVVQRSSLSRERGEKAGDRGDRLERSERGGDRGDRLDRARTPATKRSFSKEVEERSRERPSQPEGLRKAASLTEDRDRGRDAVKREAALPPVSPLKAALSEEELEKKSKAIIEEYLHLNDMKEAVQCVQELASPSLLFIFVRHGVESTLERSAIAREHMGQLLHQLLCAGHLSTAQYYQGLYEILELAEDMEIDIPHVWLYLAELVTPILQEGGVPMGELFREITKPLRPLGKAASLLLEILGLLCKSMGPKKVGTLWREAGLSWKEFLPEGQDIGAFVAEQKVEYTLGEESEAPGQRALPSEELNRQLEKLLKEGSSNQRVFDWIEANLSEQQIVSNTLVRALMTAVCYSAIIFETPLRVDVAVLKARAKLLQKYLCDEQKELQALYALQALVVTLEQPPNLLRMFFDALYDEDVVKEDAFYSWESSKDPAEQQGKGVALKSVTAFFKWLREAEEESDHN

For the compound `C=CS(=O)(=O)N1C[C@H](C(=O)Nc2ccc(OC(F)(F)F)cc2)C[C@@H](c2ccccc2)C1` [3a], the enrich.exp.med in [1] came to 0.6413; in test [2] (Comp, protein DNAJA1 P31689) it was 1.02; in [3] it was 0.6156; in test [4] it was 0.702; in test [5] it was 0.7684; in test [6], 0.7926. Further, the enrich.exp.med was 0.7021 in test [7]; 0.7901 in [8]; 0.7351 in test [9]; 0.7263 in [10]; 1.0898 in [11] (Comp, protein ARL3 P36405); 0.6162 in [12]. In addition, the enrich.exp.med in [13] is 0.8156. In addition, the enrich.exp.med.lin in [2] (setting [14]) turned out to be 2.028; in test [11] (setting [15]) it was 2.128. The values for the enrich.exp.med.log2 in test [2] (setting [14]) and in test [11] (setting [15]) were 1.02 and 1.0898, respectively.

Values taken from article PMC10176470, “Engaging a Non-catalytic Cysteine Residue Drives Potent and Selective Inhibition of Caspase-6” (Journal of the American Chemical Society, 2023).
